Source: patent publication US8946247B2, “Quinazoline carboxamide azetidines” (Merck Patent GmbH, priority 2010, dated 2015)

How the values were obtained:
P70S6K (T412E mutant) = target: T1, P70S6K (T412E mutant) (Homo sapiens, UniProt P23443, T412E); assay: p70S6K Enzyme Assay; assay type: biochemical; details: 24 μM ATP, 90 min at 25° C., Caliper mobility shift
T1 construct: purchased Millipore
Experimental: p70S6K inhibitor compounds were diluted and plated in 96 well plates. A reaction mixture including the following components were then added to the compound plate to initiate the enzyme reaction; P70S6K (3 nM, T412E mutant, Millipore) was mixed with 24 μM ATP in an assay buffer containing 100 mM Hepes (pH 7.5), 5 mM MgCl2, 1 mM DTT, 0.015% Brij and 1 μM of the substrate peptide FITC-AHA-AKRRRLSSLRA-OH (derived from the S6 ribosomal protein sequence, FITC=fluorescein isothiocyanate, AHA=6-aminohexanoic acid). The reaction was incubated for 90 min at 25° C., before the addition of 10 mM EDTA to stop the reaction. The proportion of substrate and product (phosphorylated) peptide was analysed on a Caliper Life Sciences Lab Chip 3000, using a pressure of −1.4 psi, and upstream and downstream voltages of −3000 and −700 respectively. Product peaks were resolved before substrate peaks on the resulting chromatograms.
To assess the inhibitory potential of the compounds, IC50-values were determined, as shown in Chemical Synthesis section above.

pS6 MDA-MB-468 = assay: Cellular Activity Assay (phospho-S6 in MDA-MB-468 cells); assay type: cell-based; details: Homo sapiens, 2 hr compound incubation, percent pS6-positive cells
Experimental: MDA-MB-468 cells were grown in DMEM containing glutamine supplemented with 10% Fetal Bovine Serum (FBS) and 1× antibiotics. Cells were maintained by splitting 1:3 twice a week.
For the assay, cells were plated the evening before at a density of 4000 cells per well in black polyD lysine coated 384 well plates. Cells were incubated overnight (16 to 20 hours) in growth media. Compounds at an appropriate concentration were added to the wells and incubated for 2 hr. Controls included: i) no primary, ii) rabbit isotype, iii) propidium iodide (red) only and iv) anti-phospho-S6 antibody alone (green only). Cells were then fixed in 4% paraformaldehyde for 15-20 minutes at room temperature, then washed 3×80 ul with PBS.
50 ul 10% normal goat serum (NGS) with 0.2% triton X 100 in PBS were added and incubated for 30 to 60 minutes at room temperature. Anti-phospho-S6 antibody was diluted 1:800 2% with NGS in 0.2% TritonX-100 and 30 ul added to appropriate wells. The wells were incubated overnight at 4 degrees Celsius.
Then the wells were washed with 3×80 uL PBS. The secondary green fluorescence labeled antibody (Alexa Fluor® 488 F(ab′)2 fragment goat Anti-rabbit IgG (H+L)), was diluted 1:1500 in 2% NGS with 0.2% TritonX-100, and 30 ul were added to the appropriate wells which were then incubated in the dark at room temperature for 60 minutes. Then they were washed with 4×80 ul PBS. Propidium iodide (1.5 mM stock) was diluted 1:1000 in PBS, and 50 ul were added to the appropriate wells and incubated for 30 minutes at room temperature in the dark. Propidium iodide was not washed out. Plates were read on the Acumen Explorer.
Red and green cell populations were determined using controls. The number of green cells (pS6) and total number of cells (red) were then counted and the percentage of green cells was calculated. Percent positive cell data was plotted on a log scale against concentration of compounds and IC50 values were calculated from dose response curves.

Akt1 = target: T2, Akt1 (Homo sapiens, UniProt P31749); assay: AKT/PKB Kinase Assay; assay type: biochemical; details: His-AKT (Full Length), 160 uM ATP, 90 min at 25 C
T2 construct: 0.1 ng/ul His-AKT (Full Length), (Invitrogen, Part #P2999, Lot #641228C); His; purchased Invitrogen P2999
T2 sequence (P31749 whole entry): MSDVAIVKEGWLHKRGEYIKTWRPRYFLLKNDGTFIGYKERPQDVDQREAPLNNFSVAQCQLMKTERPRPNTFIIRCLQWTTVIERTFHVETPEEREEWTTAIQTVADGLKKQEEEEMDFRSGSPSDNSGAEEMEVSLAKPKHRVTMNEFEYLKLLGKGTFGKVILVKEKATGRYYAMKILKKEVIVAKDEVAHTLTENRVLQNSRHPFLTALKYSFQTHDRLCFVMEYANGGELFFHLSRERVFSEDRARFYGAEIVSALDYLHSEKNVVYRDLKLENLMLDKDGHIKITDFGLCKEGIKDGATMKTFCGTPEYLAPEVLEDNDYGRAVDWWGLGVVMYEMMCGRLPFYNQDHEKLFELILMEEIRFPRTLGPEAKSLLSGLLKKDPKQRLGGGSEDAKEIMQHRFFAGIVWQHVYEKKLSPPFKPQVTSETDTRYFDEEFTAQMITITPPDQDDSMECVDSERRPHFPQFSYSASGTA
Experimental: In order to measure AKT inhibition in the Caliper Life Sciences LC3000, a TTP Mosquito liquid handling instrument was used to place 125 nl of the appropriate concentration of inhibitor in 100% DMSO (for a dose response curve calculation) into each well of a 384-well plate. To this reaction components were added to a final volume of 12.5 ul: • 0.1 ng/ul His-AKT (Full Length), (Invitrogen, Part #P2999, Lot #641228C) • 160 uM ATP (Fluke, 02055) • 1 mM DTT (Sigma, D0632) • 1 mM MgCl2 (Sigma, M1028) • 1 uM substrate peptide (sequence FITC-AHA-GRPRTSSFAEG-NH2), synthesized by Tufts Peptide Synthesis service. • 100 mM HEPES pH 7.5 (Calbiochem, 391338) • 0.015% Brij-35 (Sigma, B4184)
(§1) The reaction was incubated for 90 min at 25 C, and then stopped by the addition of 70 ul of Stop buffer (100 mM HEPES pH 7.5, 0.015% Brij-35, 10 mM EDTA (Sigma, E7889)).
The plate was read on a Caliper LC 3000 in an Off-Chip mobility shift assay format, using the following parameters for a 12-sipper chip: screening pressure −2.3 psi, upstream voltage −500, and downstream voltage −3000.
These conditions cause unphosphorylated substrate and phosphorylated product peptide to resolve as separate peaks allowing direct measurement of percentage of conversion of substrate to product. The percent conversion was plotted against concentration of inhibitor to produce a sigmoidal dose response curve, from which an IC50 was calculated.

Aurora B = target: T3, Aurora B (Homo sapiens, UniProt Q96GD4); assay: Aurora B Kinase Assay; assay type: biochemical; details: GST-Aurora B (1-344), 10 uM ATP, 90 min at 25 C
T3 construct: GST-Aurora B (1-344 amino acids); GST (N); purchased Carna Biosciences 05-102
T3 sequence (Q96GD4 whole entry, the tested form may be a part): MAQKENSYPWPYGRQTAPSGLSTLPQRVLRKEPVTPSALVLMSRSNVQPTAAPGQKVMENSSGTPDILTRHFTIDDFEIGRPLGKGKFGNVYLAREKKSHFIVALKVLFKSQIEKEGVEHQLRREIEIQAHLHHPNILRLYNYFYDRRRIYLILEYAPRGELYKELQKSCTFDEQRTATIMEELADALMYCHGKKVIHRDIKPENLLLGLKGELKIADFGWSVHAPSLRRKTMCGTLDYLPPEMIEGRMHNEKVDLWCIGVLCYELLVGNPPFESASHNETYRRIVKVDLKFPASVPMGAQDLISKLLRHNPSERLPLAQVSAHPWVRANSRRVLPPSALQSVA
T3 sequence (Q9NQS7 803-918 partner limits assumed): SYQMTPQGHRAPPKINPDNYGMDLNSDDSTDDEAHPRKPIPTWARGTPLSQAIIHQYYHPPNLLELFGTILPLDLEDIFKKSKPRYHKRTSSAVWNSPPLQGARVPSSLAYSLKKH
Experimental: To measure inhibitor activity of Aurora B inhibitors in the Caliper Life Sciences LC3000, a TTP Mosquito liquid handling instrument was used to place 0.25 ul of the appropriate concentration of inhibitor in 100% DMSO (for a dose response curve calculation) into each well of a 384-well plate. To this reaction components was added to a final volume of 25 ul: • 0.1 ng/ul GST-Aurora B (1-344 amino acids), (Carna Biosciences 05-102. N-terminal GST fusion with His tagged INCEP, accession number Q96GD4). • 10 uM ATP (Fluka, 02055) • 1 mM DTT (Sigma, D0632) • 1 mM MgCl2 (Sigma, M1028) • 1 uM substrate peptide (sequence FITC-LRRASLG-(CONH2), synthesized by Tufts Peptide Synthesis service. • 100 mM HEPES pH 7.5 (Calbiochem, 391338) • 0.015% Brij-35 (Sigma, B4184)
as §1
The plate was read on a Caliper LC 3000 in an Off-Chip mobility shift assay format, using the following parameters for a 12-sipper chip: screening pressure −1.8 psi, upstream voltage −2700, downstream voltage −1000. These conditions caused unphosphorylated substrate and phosphorylated product peptide to resolve as separate peaks allowing direct measurement of percentage of conversion of substrate to product. The percent conversion was plotted against concentration of inhibitor to produce a sigmoidal dose response curve, from which an IC50 was calculated using XLFit for Microsoft Excel.

T1 sequence (P23443 1-421 T412E limits assumed): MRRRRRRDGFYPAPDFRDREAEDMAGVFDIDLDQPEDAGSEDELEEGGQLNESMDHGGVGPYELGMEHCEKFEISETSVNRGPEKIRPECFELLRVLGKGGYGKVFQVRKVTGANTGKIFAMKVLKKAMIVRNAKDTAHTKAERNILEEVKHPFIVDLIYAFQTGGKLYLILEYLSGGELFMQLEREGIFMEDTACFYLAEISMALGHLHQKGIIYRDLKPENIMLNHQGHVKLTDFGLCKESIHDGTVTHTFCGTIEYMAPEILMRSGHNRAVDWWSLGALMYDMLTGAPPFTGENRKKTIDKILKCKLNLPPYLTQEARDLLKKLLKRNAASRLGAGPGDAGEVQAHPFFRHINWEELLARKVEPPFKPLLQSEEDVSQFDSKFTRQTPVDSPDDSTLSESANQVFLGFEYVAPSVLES

| Compound | IC50 (P70S6K (T412E mutant)) [nM] | IC50 (pS6 MDA-MB-468) [nM] | IC50 (Akt1) [nM] | IC50 (Aurora B) [nM] |
| --- | --- | --- | --- | --- |
| NC(=O)c1cccc2c(N[C@H](CN3CCC3)c3ccc(F)cc3Cl)ncnc12 [Example 24, 4-[(S)-2-Azetidin-1-yl-1-(2-chloro-4-fluoro-phenyl)-ethylamino]-quinazoline-8-carboxylic acid amide] | 8.7 | 1030 | 77 | 107 |
| NC(=O)c1cccc2c(N[C@H](CN3CCC3)c3cc(F)ccc3Cl)ncnc12 [Example 25, 4-[(S)-2-Azetidin-1-yl-1-(2-chloro-5-fluoro-phenyl)-ethylamino]-quinazoline-8-carboxylic acid amide] | 3.1 | 486 | 370 | 259 |
| NC(=O)c1cccc2c(N[C@H](CN3CCC3)c3cc(F)ccc3F)ncnc12 [Example 26, 4-[(S)-2-Azetidin-1-yl-1-(2,5-di-fluoro-phenyl)-ethylamino]-quinazoline-8-carboxylic acid amide] | 5.3 | 359 | 98 | 230 |
| NC(=O)c1cccc2c(N[C@H](CN3CCC3)c3cccc(C(F)(F)F)c3)ncnc12 [Example 27, 4-[(S)-2-Azetidin-1-yl-1-(3-trifluoromethyl-phenyl)-ethylamino]-quinazoline-8-carboxylic acid amide] | 1.4 | 56 | 5.6 | 180 |
| NC(=O)c1cccc2c(N[C@H](CN3CCC3)c3ccc(OC(F)(F)F)cc3)ncnc12 [Example 30, 4-[(S)-2-Azetidin-1-yl-1-(4-trifluoromethoxy-phenyl)-ethylamino]-quinazoline-8-carboxylic acid amide] | 1.7 | 199 | 187 | 370 |
| NC(=O)c1cccc2c(N[C@H](CN3CCC3)c3ccc(F)c(C(F)(F)F)c3)ncnc12 [Example 31, 4-[(S)-2-Azetidin-1-yl-1-(4-fluoro-3-trifluoromethyl-phenyl)-ethylamino]-quinazoline-8-carboxylic acid amide] | 2.4 | 28 | 7.3 | 285 |
| NC(=O)c1cccc2c(N[C@H](CN3CCC3)c3cc(F)c(F)c(F)c3)ncnc12 [Example 37, 4-[(S)-2-Azetidin-1-yl-1-(3,4,5-trifluorophenyl)-ethylamino]-quinazoline-8-carboxylic acid amide] | 2.8 | 130 | 25 | 200 |
| COc1c(F)cc([C@@H](CN2CCC2)Nc2ncnc3c(C(N)=O)cccc23)cc1F [Example 38, 4-[(S)-2-Azetidin-1-yl-1-(3,5-difluoro-4-methoxyphenyl)-ethylamino]-quinazoline-8-carboxylic acid amide] | 1.8 | 113 | 140 | 280 |
| N#Cc1cc([C@@H](CN2CCC2)Nc2ncnc3c(C(N)=O)cccc23)ccc1F [Example 39, 4-[(S)-2-Azetidin-1-yl-1-(3-cyano-4-fluorophenyl)-ethylamino]-quinazoline-8-carboxylic acid amide] | 3.3 | 246 | 83 | 650 |
| Cc1cc([C@@H](CN2CCC2)Nc2ncnc3c(C(N)=O)cccc23)ccc1F [Example 42, 4-[(S)-2-Azetidin-1-yl-1-(4-fluoro-3-methyl-phenyl)-ethylamino]-quinazoline-8-carboxylic acid amide] | 1.6 | 32 | 23 | 120 |
| COc1cc([C@@H](CN2CCC2)Nc2ncnc3c(C(N)=O)cccc23)ccc1F [Example 43, 4-[(S)-2-Azetidin-1-yl-1-(4-fluoro-3-methoxy-phenyl)-ethylamino]-quinazoline-8-carboxylic acid amide] | 4 | 484 | 21 | 69 |
| NC(=O)c1cccc2c(N[C@H](CN3CCC3)c3ccc(F)c(C(F)F)c3)ncnc12 [Example 44, 4-[(S)-2-Azetidin-1-yl-1-(3-difluoromethyl-4-fluoro-phenyl)-ethylamino]-quinazoline-8-carboxylic acid amide] | 1.7 | 41 | 7.3 | 75 |
| NC(=O)c1cc(F)cc2c(N[C@H](CN3CCC3)c3ccc(F)c(C(F)(F)F)c3)ncnc12 [Example 45, 4-[(S)-2-Azetidin-1-yl-1-(4-fluoro-3-trifluoromethyl-phenyl)-ethylamino]-6-fluoro-quinazoline-8-carboxylic acid amide] | 1.5 | 33 | 5.9 | 290 |
| CC1CN(C[C@@H](Nc2ncnc3c(C(N)=O)cccc23)c2ccc(F)c(C(F)(F)F)c2)C1 [Example 46, 4-[(S)-1-(4-Fluoro-3-trifluoromethyl-phenyl)-2-(3-methyl-azetidin-1-yl)-ethylamino]-quinazoline-8-carboxylic acid amide] | 4.9 | 427 | 7.5 | 390 |
| COc1cc(C(N)=O)c2ncnc(N[C@H](CN3CCC3)c3ccc(F)c(C(F)(F)F)c3)c2c1 [Example 47, 4-[(S)-2-Azetidin-1-yl-1-(4-fluoro-3-trifluoromethyl-phenyl)-ethylamino]-6-methoxy-quinazoline-8-carboxylic acid amide] | 2.2 | 27 | 1.5 | 200 |
